Data on 20 molecules can be found in PubChem BioAssay AID248 (DTP/NCI, 2004).

Each structure is given as a SMILES string. Toxic doses and inconclusive results are not listed.

The experiment deals with L1210 leukemia ip in BDF1 mice, survival T/C. Nature of the experiment: NCI In Vivo Anticancer Drug Screen. Data for tumor model L1210 Leukemia (intraperitoneal) in B6D2F1 (BDF1) mice. The conditions noted are these: endpoint: mean survival time, higher = longer survival. A digest of the protocol:
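Value reflects the ratio of survival in compound-treated mice to survival in vehicle-treated controls, with both groups carrying the same transplanted tumor.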

Setting [1] is: dose: 25.0 mg/kg/injection, schedule: Q04DX003 (ip), vehicle: saline with Tween-80.
Setting [2] is: dose: 50.0 mg/kg/injection, schedule: Q04DX003 (ip), vehicle: saline with Tween-80.
[3] abbreviates: dose: 100.0 mg/kg/injection, schedule: Q01DX001 (ip), vehicle: carboxymethylcellulose (CMC).
Setting [4] is: dose: 200.0 mg/kg/injection, schedule: Q01DX001 (ip), vehicle: carboxymethylcellulose (CMC).
Where [5] appears, read: dose: 400.0 mg/kg/injection, schedule: Q01DX001 (ip), vehicle: carboxymethylcellulose (CMC).
The mark [6] stands for this setting: dose: 6.25 mg/kg/injection, schedule: Q01DX009 (ip), vehicle: saline.
The mark [7] stands for this setting: dose: 12.5 mg/kg/injection, schedule: Q01DX009 (ip), vehicle: saline.
The mark [8] stands for this setting: dose: 25.0 mg/kg/injection, schedule: Q01DX009 (ip), vehicle: saline.
[9] abbreviates: dose: 50.0 mg/kg/injection, schedule: Q01DX009 (ip), vehicle: saline.
Setting [10] is: dose: 50.0 mg/kg/injection, schedule: Q01DX001 (ip), vehicle: carboxymethylcellulose (CMC).
Where [11] appears, read: dose: 100.0 mg/kg/injection, schedule: Q01DX009 (ip), vehicle: saline.
[12] abbreviates: dose: 100.0 mg/kg/injection, schedule: Q04DX003 (ip), vehicle: saline.
Setting [13] is: dose: 50.0 mg/kg/injection, schedule: Q01DX009 (ip), vehicle: saline with Tween-80.
Setting [14] is: dose: 100.0 mg/kg/injection, schedule: Q04DX003 (ip), vehicle: saline with Tween-80.
Where [15] appears, read: dose: 200.0 mg/kg/injection, schedule: Q04DX003 (ip), vehicle: saline with Tween-80.
[16] abbreviates: dose: 400.0 mg/kg/injection, schedule: Q04DX003 (ip), vehicle: saline with Tween-80.
The mark [17] stands for this setting: dose: 100.0 mg/kg/injection, schedule: Q01DX009 (ip), vehicle: saline with Tween-80.
Setting [18] is: dose: 200.0 mg/kg/injection, schedule: Q01DX009 (ip), vehicle: saline with Tween-80.
Where [19] appears, read: dose: 100.0 mg/kg/injection, schedule: Q01DX001 (ip), vehicle: Klucel (hydroxypropylcellulose) (HPC).
The mark [20] stands for this setting: dose: 200.0 mg/kg/injection, schedule: Q01DX001 (ip), vehicle: Klucel (hydroxypropylcellulose) (HPC).
The mark [21] stands for this setting: dose: 400.0 mg/kg/injection, schedule: Q01DX001 (ip), vehicle: Klucel (hydroxypropylcellulose) (HPC).
The mark [22] stands for this setting: dose: 100.0 mg/kg/injection, schedule: Q01DX009 (ip), vehicle: Klucel (hydroxypropylcellulose) (HPC).
Setting [23] is: dose: 200.0 mg/kg/injection, schedule: Q01DX009 (ip), vehicle: Klucel (hydroxypropylcellulose) (HPC).
Setting [24] is: dose: 400.0 mg/kg/injection, schedule: Q01DX009 (ip), vehicle: Klucel (hydroxypropylcellulose) (HPC).
Setting [25] is: dose: 400.0 mg/kg/injection, schedule: Q04DX003 (ip), vehicle: Klucel (hydroxypropylcellulose) (HPC).

Turning to `C=Cc1c(C)c2cc3[nH]c(cc4nc(cc5nc(cc1[nH]2)C(C)=C5CCC(=O)O)C(CCC(=O)O)=C4C)c(C)c3C=C`, the T/C (dose: 100.0 mg/kg/injection, schedule: Q04DX003 (ip), vehicle: dextrose) was 96 % of control; the T/C (dose: 200.0 mg/kg/injection, schedule: Q04DX003 (ip), vehicle: dextrose) was 100 % of control; the T/C (dose: 400.0 mg/kg/injection, schedule: Q01DX009 (ip), vehicle: saline with Tween-80) is 88 % of control; the T/C (dose: 400.0 mg/kg/injection, schedule: Q04DX003 (ip), vehicle: dextrose) was 100 % of control.

Turning to `CCCCN1C(=S)NC(C)(C)C=C1C`, the T/C by setting is: (dose: 12.5 mg/kg/injection, schedule: Q04DX003 (ip), vehicle: saline with Tween-80) 95 % of control; under setting [1], 98 % of control; under setting [2], 96 % of control.

For the molecule `CCCCN1C(=O)NC(=O)C1c1ccsc1` (stereo not given), the T/C is 103 % of control under setting [3], 94 % of control under setting [4] and 100 % of control under setting [5].

Regarding `CN1C2CCC1CC(OC1c3ccccc3CCc3ccccc31)C2` (stereo not given), the T/C is 105 % of control under setting [6], 104 % of control under setting [7], 101 % of control under setting [8] and 101 % of control under setting [9].

`O=S(=O)(Cc1nc2ccccc2[nH]1)Cc1nc2ccccc2[nH]1`: the T/C runs as follows: under setting [10], 97 % of control; under setting [3], 92 % of control; under setting [4], 100 % of control; under setting [5], 92 % of control.

Take `CCC(=O)OC1(c2ccccc2)CCN(C)C1C` (stereo not given): the T/C under setting [6] is 101 % of control; the T/C under setting [7] is 97 % of control; the T/C under setting [8] is 103 % of control; the T/C (dose: 25.0 mg/kg/injection, schedule: Q04DX003 (ip), vehicle: saline) is 103 % of control; the T/C under setting [9] is 111 % of control; the T/C (dose: 50.0 mg/kg/injection, schedule: Q04DX003 (ip), vehicle: saline) is 105 % of control. In addition, the T/C under setting [11] is 103 % of control and the T/C under setting [12] is 100 % of control.

As to `O=C(/C(=C\Cl)CBr)c1ccccc1`, the T/C is, setting by setting: (dose: 12.5 mg/kg/injection, schedule: Q01DX009 (ip), vehicle: saline with Tween-80) 88 % of control; (dose: 25.0 mg/kg/injection, schedule: Q01DX009 (ip), vehicle: saline with Tween-80) 88 % of control; under setting [1], 90 % of control; under setting [13], 90 % of control; under setting [2], 92 % of control; under setting [14], 98 % of control.

`CSCCNC(=O)CS(=O)(=O)c1ccc(C)cc1`: the T/C by setting is: under setting [14], 100 % of control; under setting [15], 100 % of control; under setting [16], 92 % of control.

Turning to `C#CCOCC(O)CCl` (stereo not given), the T/C reads like this: (dose: 75.0 mg/kg/injection, schedule: Q01DX001 (ip), vehicle: acetone) 101 % of control; (dose: 150.0 mg/kg/injection, schedule: Q01DX001 (ip), vehicle: acetone) 92 % of control; (dose: 300.0 mg/kg/injection, schedule: Q01DX001 (ip), vehicle: acetone) 89 % of control.

Take `[O-][n+]1ccccc1Cc1ccccc1`: the T/C is 90 % of control under setting [13]; 90 % of control under setting [17]; 97 % of control (dose: 100.0 mg/kg/injection, schedule: Q04DX002 (ip), vehicle: saline with Tween-80); 90 % of control under setting [18]; 101 % of control (dose: 200.0 mg/kg/injection, schedule: Q04DX002 (ip), vehicle: saline with Tween-80); 101 % of control (dose: 400.0 mg/kg/injection, schedule: Q04DX002 (ip), vehicle: saline with Tween-80).

For the molecule `CN(C)N=Nc1c[nH]c(=O)[nH]c1=O`, the T/C (dose: 10.0 mg/kg/injection, schedule: Q01DX001 (ip), vehicle: saline) is 108 % of control; the T/C (dose: 20.0 mg/kg/injection, schedule: Q01DX001 (ip), vehicle: saline) is 120 % of control; the T/C (dose: 40.0 mg/kg/injection, schedule: Q01DX001 (ip), vehicle: saline) is 123 % of control.

Consider `C=CC1CCN(CCn2cc(C)c(=O)[nH]c2=O)CC1`, for which the T/C is 101 % of control under setting [14], 107 % of control under setting [15] and 101 % of control under setting [16].

As for `CC(=O)OC1CCC2(C)C(=CC=C3C2CCC2(C)C3CCC2C(C)CCCC(C)C)C1` (stereo not given), the T/C is 97 % of control under setting [19], 87 % of control under setting [20] and 87 % of control under setting [21].

In the case of `O=C([O-])C[n+]1ccccc1`, the T/C under setting [11] is 105 % of control; the T/C under setting [12] is 105 % of control; the T/C (dose: 200.0 mg/kg/injection, schedule: Q01DX009 (ip), vehicle: saline) is 94 % of control; the T/C (dose: 200.0 mg/kg/injection, schedule: Q04DX003 (ip), vehicle: saline) was 107 % of control; the T/C (dose: 400.0 mg/kg/injection, schedule: Q01DX009 (ip), vehicle: saline) was 87 % of control; the T/C (dose: 400.0 mg/kg/injection, schedule: Q04DX003 (ip), vehicle: saline) is 100 % of control.

Turning to `CN(C)/N=N/c1nc(Cc2ccccc2)[nH]c1C(N)=O`, the T/C is, setting by setting: under setting [22], 108 % of control; (dose: 177.0 mg/kg/injection, schedule: Q01DX009 (ip), vehicle: Klucel (hydroxypropylcellulose) (HPC)) 116 % of control; under setting [23], 112 % of control; (dose: 266.0 mg/kg/injection, schedule: Q01DX009 (ip), vehicle: Klucel (hydroxypropylcellulose) (HPC)) 122 % of control; (dose: 266.0 mg/kg/injection, schedule: Q04DX003 (ip), vehicle: Klucel (hydroxypropylcellulose) (HPC)) 109 % of control; under setting [24], 155 % of control. The T/C is 109 % of control under setting [25] and 106 % of control (dose: 600.0 mg/kg/injection, schedule: Q04DX003 (ip), vehicle: Klucel (hydroxypropylcellulose) (HPC)).

For the molecule `Cc1ccc2c(c1)SP(=S)(c1ccccc1)N2` (stereo not given), the T/C is, setting by setting: (dose: 15.0 mg/kg/injection, schedule: Q01DX Z (ip), vehicle: saline) 100 % of control; (dose: 25.0 mg/kg/injection, schedule: Q01DX Z (ip), vehicle: saline) 89 % of control.

In the case of `CCOC(=O)NCCCCCCNC(=O)OCC`, the T/C runs as follows: under setting [13], 97 % of control; under setting [17], 95 % of control; under setting [18], 95 % of control.

Consider `C=CCOc1ccn(CC=C)c(=O)n1`, for which the T/C was 96 % of control under setting [19], 98 % of control under setting [20] and 105 % of control under setting [21].

Take `CSc1nnc2scnn12`: the T/C under setting [10] was 104 % of control, the T/C under setting [3] is 104 % of control and the T/C under setting [4] is 101 % of control.

Regarding `S=c1sscc1-c1ccccc1`, the T/C is 95 % of control (dose: 50.0 mg/kg/injection, schedule: Q04DX003 (ip), vehicle: Klucel (hydroxypropylcellulose) (HPC)); 108 % of control under setting [22]; 111 % of control (dose: 100.0 mg/kg/injection, schedule: Q04DX003 (ip), vehicle: Klucel (hydroxypropylcellulose) (HPC)); 112 % of control under setting [23]; 95 % of control (dose: 200.0 mg/kg/injection, schedule: Q04DX003 (ip), vehicle: Klucel (hydroxypropylcellulose) (HPC)); 110 % of control under setting [24]. In addition, under setting [25], the T/C is 98 % of control.
